Patent publication US20230086703A1, “N-(4-(5-chloropyridin-3-yl)phenyl)-2-(2-(cyclopropanesulfonamido)pyrimidin-4-yl) butanamide derivatives and related compounds as human CTPS1 inhibitors for the treatment of proliferative diseases” (Step Pharma S.A.S., priority 2019, published 2023)

Legend:
[1] = biological target: T1, human CTPS1 (Homo sapiens, UniProt P17812); test: RapidFire/MS-based enzyme selectivity assay (human CTPS1 versus CTPS2), CTPS1 isoform; type: biochemical
T1 construct: FLAG (with GG linker); His8 (with GG linker); purchased Proteros biostructures GmbH
T1 sequence (P17812 1-591): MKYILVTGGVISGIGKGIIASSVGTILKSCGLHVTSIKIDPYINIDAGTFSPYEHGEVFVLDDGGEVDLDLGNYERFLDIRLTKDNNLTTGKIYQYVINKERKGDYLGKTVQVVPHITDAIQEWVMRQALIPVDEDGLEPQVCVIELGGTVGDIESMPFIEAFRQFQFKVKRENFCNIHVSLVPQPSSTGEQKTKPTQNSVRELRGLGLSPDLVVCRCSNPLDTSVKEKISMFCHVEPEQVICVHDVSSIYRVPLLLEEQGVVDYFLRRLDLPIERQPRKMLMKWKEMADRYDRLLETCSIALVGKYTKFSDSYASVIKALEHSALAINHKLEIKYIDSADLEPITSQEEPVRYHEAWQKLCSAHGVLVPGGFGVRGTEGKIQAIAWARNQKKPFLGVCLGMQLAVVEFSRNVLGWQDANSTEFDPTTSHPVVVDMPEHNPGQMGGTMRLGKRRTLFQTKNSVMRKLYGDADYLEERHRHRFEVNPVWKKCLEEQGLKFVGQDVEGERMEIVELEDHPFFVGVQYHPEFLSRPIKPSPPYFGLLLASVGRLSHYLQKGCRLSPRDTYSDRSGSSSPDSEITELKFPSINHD
Description: Human CTPS1 Versus CTPS2 Selectivity Assessment by RapidFire/MS Analysis.
The enzyme inhibitory activities against each target isoform of interest may be determined for the compounds of the invention using an optimised RapidFire high-throughput mass spectrometry (RF/MS) assay format. RF/MS assays for both human CTPS1 and CTPS2 may be performed in assay buffer consisting of 50 mM HEPES (Merck), 20 mM MgCl2, 5 mM KCl, 1 mM DTT, 0.01% Tween-20, pH to 8.0 accordingly. Human full-length active C-terminal FLAG-His-tag CTPS1 (UniProtKB—P17812, CTPS1[1-591]-[…] (CTPS1[1-591]-SEQ ID NO: 1)) may be obtained from Proteros biostructures GmbH. Human full length active C-terminal FLAG-His-Avi tagged CTPS2 (UniProtKB—Q9NRF8, CTPS2 [1-586]-[…] (CTPS2 [1-586]—SEQ ID NO: 2)) may be obtained from Harker Bio.
Human CTPS (1 or 2) protein may be prepared in 1× assay buffer to the final working protein concentration required for the reaction. A 2 uL volume per well of 2×CTPS (1 or 2) protein may be mixed with 40 nL of compound using acoustic (ECHO) delivery and incubated for 10 minutes at 25° C. Each isoform enzymatic reaction may be subsequently initiated by addition of 2 uL per well of a 2× substrate mix in assay buffer. For hCTPS1: ATP (0.3 mM), UTP (0.2 mM), GTP (0.07 mM) and L-glutamine (0.1 mM). For hCTPS2: ATP (0.1 mM), UTP (0.04 mM), GTP (0.03 mM) and L-glutamine (0.1 mM). Each mixture may be incubated for an appropriate amount of time per isoform within the determined linear phase of the reaction at 25° C. A 80 uL volume of stop solution (1% formic acid with 0.5 uM ^13C9-^15N3-CTP in H2O) may be added and the plate immediately heat-sealed and centrifuged for 10 minutes at 4,000 rpm. Following centrifugation, plates may be loaded onto the Agilent RapidFire microfluidic solid phase extraction system coupled to an API4000 triple quadrupole mass spectrometer (RF/MS) for analysis.
In all cases, the enzyme converts UTP to CTP. Highly specific and sensitive multiple reaction monitoring (MRM) MS methods may be optimised for the detection of the enzymatic reaction product, CTP, and the stable isotope labelled product standard ^13C9-^15N3-CTP. Readout for data analysis may be calculated as the ratio between the peak area of the product CTP and the internal standard ^13C9-^15N3-CTP. For data reporting, the following equation may be used:
(R=ratio/readout, P=product signal area, IS=internal standard signal area)
For each screening plate, the means of the negative (DMSO) and positive control values were used for the calculation of the respective assay window (S/B) and Z′ values. The median of the respective control values was used for calculation of percent inhibition according to the following equation:
(I=Inhibition, Rneq=median of negative control readout values, Rpos=median of positive control readout values, Rsample=sample readout value)
Percentage inhibition was then plotted against compound concentration, and the 50% inhibitory concentration (IC50) was determined from the resultant concentration-response curve.
Fold selectivity between CTPS1 and CTPS2 was subsequently calculated according to the following equation: […]

[2] = biological target: T1, human CTPS1; test: Human CTPS1 enzyme inhibition, ADP-Glo Max assay; type: biochemical; conditions: ADP-Glo Max assay; Table 10; read-out: Human CTPS1 Enzyme Inhibition, IC50 grouped by potency range (CTPS1)
Method in brief: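 Enzyme preincubated with compound for 10 min at 25 °C in 50 mM Tris pH 8.0, 10 mM MgCl2, 0.01% Tween-20, 2 mM L-cysteine. ATP-to-ADP conversion detected by ADP-Glo Max luminescence after 60 min depletion and 60 min development steps. Percentage inhibition calculated per concentration.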

[3] = Table 16, human CTPS1 over human CTPS2, RapidFire/MS IC50 values
[4] = RapidFire/MS IC50 values of CTPS1 and CTPS2, Table 15

Row | SMILES | IC50 [2] | also measured
1 | CCOc1cncc(-c2ccc(C(=O)NC(CC)c3csc(NS(=O)(=O)C4CC4)n3)c(F)c2)n1 (racemic) [R62, N-(1-(2-(cyclopropanesulfonamido)thiazol-4-yl)propyl)-4-(6-ethoxypyrazin-2-yl)-2-fluorobenzamide] | – | Selectivity (fold selectivity between CTPS1 and CTPS2) [1, 3]: +++ (>60 fold (+++))
2 | CCOc1cncc(-c2ccc(C(=O)N(C)C(CC)c3csc(NS(=O)(=O)C4CC4)n3)c(F)c2)n1 (racemic) [R63, N-(1-(2-(cyclopropanesulfonamido)thiazol-4-yl)propyl)-4-(6-ethoxypyrazin-2-yl)-2-fluoro-N-methylbenzamide] | – | Selectivity (fold selectivity between CTPS1 and CTPS2) [1, 3]: + (2-30 fold (+))
3 | CCC(NC(=O)c1ccc(-c2cncc(OC(C)C)n2)cc1F)c1csc(NS(=O)(=O)C2CC2)n1 (racemic) [R64, N-(1-(2-(cyclopropanesulfonamido)thiazol-4-yl)propyl)-2-fluoro-4-(6-isopropoxypyrazin-2-yl)benzamide] | – | Selectivity (fold selectivity between CTPS1 and CTPS2) [1, 3]: ++ (>30-60 fold (++))
4 | CCOc1cncc(-c2ccc(NC(=O)C(F)(CC)c3ccnc(NS(=O)(=O)C4CC4)n3)nc2)n1 (single isomer, unassigned) [P113, 2-(2-(Cyclopropanesulfonamido)pyrimidin-4-yl)-N-(5-(6-ethoxypyrazin-2-yl)pyridin-2-yl)-2-fluorobutanamide] | – | Selectivity (fold selectivity between CTPS1 and CTPS2) [1, 4]: + (2-30 fold (+))
5 | CCOc1cncc(-c2ccc(NC(=O)C(F)(CC)c3ccnc(NS(=O)(=O)C4CC4)n3)nc2)n1 (single isomer, unassigned) [P114, 2-(2-(Cyclopropanesulfonamido)pyrimidin-4-yl)-N-(5-(6-ethoxypyrazin-2-yl)pyridin-2-yl)-2-fluorobutanamide] | – | Selectivity (fold selectivity between CTPS1 and CTPS2) [1, 4]: +++ (>60 fold (+++))
6 | CCOc1cncc(-c2ccc(NC(=O)C(C)(OC)c3cncc(NS(=O)(=O)C4CC4)n3)nc2)n1 (single isomer, unassigned) [P205a, 2-(6-(cyclopropanesulfonamido)pyrazin-2-yl)-N-(5-(6-ethoxypyrazin-2-yl)pyridin-2-yl)-2-methoxypropanamide] | – | Selectivity (fold selectivity between CTPS1 and CTPS2) [1, 4]: +++ (>60 fold (+++))
7 | CCOc1cncc(-c2ccc(NC(=O)C(C)(OC)c3cncc(NS(=O)(=O)C4CC4)n3)nc2)n1 (single isomer, unassigned) [P205b, 2-(6-(cyclopropanesulfonamido)pyrazin-2-yl)-N-(5-(6-ethoxypyrazin-2-yl)pyridin-2-yl)-2-methoxypropanamide] | – | Selectivity (fold selectivity between CTPS1 and CTPS2) [1, 4]: ++ (>30-60 fold (++))
8 | CCOc1cncc(-c2ccc(NC(=O)C(F)(CC)c3cncc(NS(=O)(=O)C4CC4)n3)nc2)n1 (single isomer, unassigned) [P206, 2-(6-(2-cyclopropanesulfonamido)pyrazin-2-yl)-N-(5-(6-ethoxypyrazin-2-yl)pyridin-2-yl)-2-fluorobutanamide] | – | Selectivity (fold selectivity between CTPS1 and CTPS2) [1, 4]: +++ (>60 fold (+++))
9 | CCOc1cncc(-c2ccc(NC(=O)Cc3csc(NS(=O)(=O)C4CC4)n3)cc2)n1 [T424, 2-(2-(cyclopropanesulfonamido)thiazol-4-yl)-N-(4-(6-ethoxypyrazin-2-yl)phenyl)acetamide] | < 100 nM | –
10 | CC(C)(C(=O)Nc1ccc(-c2cncc(C(F)(F)F)n2)cn1)c1csc(NS(C)(=O)=O)n1 [T425, 2-methyl-2-(2-(methylsulfonamido)thiazol-4-yl)-N-(5-(6-(trifluoromethyl)pyrazin-2-yl)pyridin-2-yl)propanamide] | < 100 nM | –
11 | CC(C)(C(=O)Nc1ccc(-c2cncc(C(F)(F)F)c2)cc1F)c1csc(NS(C)(=O)=O)n1 [T426, N-(2-fluoro-4-(5-(trifluoromethyl)pyridin-3-yl)phenyl)-2-methyl-2-(2-(methylsulfonamido)thiazol-4-yl)propanamide] | 100 to 1000 nM | –
12 | CC(C)(C(=O)Nc1ccc(-c2cncc(C(F)(F)F)c2)cc1F)c1csc(NS(=O)(=O)CC2CC2)n1 [T427, 2-(2-((cyclopropylmethyl)sulfonamido)thiazol-4-yl)-N-(2-fluoro-4-(5-(trifluoromethyl)pyridin-3-yl)phenyl)-2-methylpropanamide] | 100 to 1000 nM | –
13 | Cc1c(Cl)cncc1-c1ccc(NC(=O)C(C)(C)c2csc(NS(=O)(=O)C3CC3)n2)cc1 [T428, N-(4-(5-chloro-4-methylpyridin-3-yl)phenyl)-2-(2-(cyclopropanesulfonamido)thiazol-4-yl)-2-methylpropanamide] | 100 to 1000 nM | –
14 | CCOc1cncc(-c2ccc(NC(=O)C(C)(C)c3csc(NS(C)(=O)=O)n3)c(C(F)(F)F)c2)n1 [T429, N-(4-(6-ethoxypyrazin-2-yl)-2-(trifluoromethyl)phenyl)-2-methyl-2-(2-(methylsulfonamido)thiazol-4-yl)propanamide] | < 100 nM | –
15 | CC(C)(C(=O)Nc1ccc(-c2cncc(C(F)(F)F)n2)cc1F)c1csc(NS(=O)(=O)CC2CC2)n1 [T430, 2-(2-((cyclopropylmethyl)sulfonamido)thiazol-4-yl)-N-(2-fluoro-4-(6-(trifluoromethyl)pyrazin-2-yl)phenyl)-2-methylpropanamide] | 100 to 1000 nM | –
16 | CCOc1cncc(-c2ccc(NC(=O)C(C)(C)c3csc(NS(C)(=O)=O)n3)c(F)c2)n1 [T431, N-(4-(6-ethoxypyrazin-2-yl)-2-fluorophenyl)-2-methyl-2-(2-(methylsulfonamido)thiazol-4-yl)propanamide] | < 100 nM | –
17 | CCOc1cncc(-c2ccc(NC(=O)C(C)(C)c3csc(NS(=O)(=O)CCOC)n3)c(F)c2)n1 [T432, N-(4-(6-ethoxypyrazin-2-yl)-2-fluorophenyl)-2-(2-((2-methoxyethyl)sulfonamido)thiazol-4-yl)-2-methylpropanamide] | 100 to 1000 nM | –
18 | CCOc1cncc(-c2ccc(NC(=O)C(C)(C)c3csc(NS(C)(=O)=O)n3)cc2)n1 [T434, N-(4-(6-ethoxypyrazin-2-yl)phenyl)-2-methyl-2-(2-(methylsulfonamido)thiazol-4-yl)propanamide] | < 100 nM | –
19 | Cc1cncc(-c2ccc(NC(=O)C(C)(C)c3csc(NS(=O)(=O)C4CC4)n3)nc2)n1 [T464, 2-(2-(cyclopropanesulfonamido)thiazol-4-yl)-2-methyl-N-(5-(6-methylpyrazin-2-yl)pyridin-2-yl)propanamide] | < 100 nM | –
20 | Cc1cc(-c2cncc(C#N)n2)ccc1NC(=O)C(C)(C)c1csc(NS(=O)(=O)C2CC2)n1 [T465, N-(4-(6-cyanopyrazin-2-yl)-2-methylphenyl)-2-(2-(cyclopropanesulfonamido)thiazol-4-yl)-2-methylpropanamide] | 1000 to 10000 nM | –
